Source: US11628226B2, “Methods and gene therapy constructs for treating GM2 gangliosidoses” (priority 2016, dated 2023)

Tests used:
[1] = test system: Sandhoff mouse (hexb-/-); test: Survival of SD mice (Kaplan-Meier, humane end point); type: in vivo; conditions: for Survival in conjunction with HEXB-HEXA: AAV9-HEXB-HEXA neonatal day one 2×10^13 vg/kg plus daily oral drug from eight weeks; for Survival time: untreated SD mice 110 days; for Mice that did not reach humane end point after 210 days: drug in conjunction with HEXB-HEXA, n=6 per group
Method: The hexb−/− experimental mice were obtained from Jackson Laboratories. From these, a colony was established at Queen's University through heterozygous breeding (hexb+/−). Genotyping of the mice was carried out via PCR amplification from animal ear punches taken at the time of weaning (three weeks of age). Experimental animals were obtained through mutant cross breeding (hexb−/−). The mice were maintained on a 12-hour light cycle from 7 am to 7 pm. All experimental protocols and procedures were performed in accordance with and were approved by the Queen's University Animal Care Committee.
Neonatal mice were intravenously injected with the ssAAV/HEXB-HEXA vector or a vehicle injection through the superficial temporal vein on day 0-1. Each treated mouse received an injection of 2.04×10^10 vg/mouse in a volume of 50 uL PBS with […] NaCl and 5% sorbitol (vehicle). Untreated mice received an injection of 50 uL vehicle. During the injections, the dames were removed from the pups and placed in a clean cage. The cage of the pups alone was placed on a heating pad to keep them warm. Pups were then removed from the cage, one at a time, and placed over an LED light to aid in visualization of the superficial temporal vein. The pups received the injection using a 30 gauge needle and 1 mL syringe. After the injection, pressure was applied to the mouse using sterile gauze and the pup was returned to the home cage. The dame was returned to the cage with the pups following the completion of all injections. Pups were then monitored closely for several days to ensure survival.
Starting at eight weeks of age, each drug treatment cohort received pyrimethamine, indomethacin, or ITF2357 at a dose of 1 mg/kg/day. Drug treatments were administered in the morning of the 12-hour light cycle via oral gavage using a 22 g curved feeding needle from Kent Scientific. ITF2357 was dissolved in ddH2O by heating to 85° C. while stirring for 1 hour. Indomethacin and pyrimethamine were each dissolved in 0.5% methylcellulose by heating to 80° C. while stirring for 1 hour. Each of these was stored at 4° C. for up to 2 weeks.
(§1) Animal tissues were collected at designated 16 week end points and long term humane end points. The humane end points were determined by either […] loss of peak body weight or an inability to right itself in 10 seconds. Euthanization was carried out via CO2 asphyxiation followed by cardiac puncture and perfusion with 10 mL of chilled PBS. For biochemical analysis sections of the forebrain, midbrain, hindbrain, cervical spinal cord, and lumbar spinal cord were collected along with the heart, lungs, liver, spleen, kidney, gonads, and a section skeletal muscle. These were all frozen immediately for further processing. For histological purposes, sections of the midbrain and liver were collected, fixed in 4% paraformaldehyde overnight and then immersed in 100% ethanol until sent to the Queen's University Histology department for paraffin embedding. Additional midbrain sections were collected from a number of mice and frozen in liquid nitrogen. Blood was collected via the saphenous vein on a monthly basis starting at 8 weeks and continuing until the humane end point. Additionally, blood was collected via the cardiac puncture during euthanization. Serum was separated from blood samples by centrifugation of 4000 rpm for 10 min and frozen immediately for storage.
To evaluate the efficacy of a single intravenous […] of rAAV9 expressing the human HEXA and HEXB cDNA in ameliorating the biochemical and neurological phenotype in SD, AAV9-HEXB-HEXA or a vehicle control was administered to postnatal day one neonates at a relatively low dose of 2×10^13 vg/kg via superficial temporal vein. Mice were all followed until they reached 32 weeks of age, or a humane end point.
Survival was analyzed with the log-rank (Mantel-Cox) test. […] This relationship is shown by the Kaplan-Meier plots in FIG. 3. […]

[2] = test system: Sandhoff mouse (hexb-/-); test: Open field test of motor activity in SD mice; type: in vivo; conditions: HEXB-HEXA treated SD mice plus drug, week 24
Method: Behavioural testing was carried out on a bi-weekly basis from the age of eight weeks until each end point. The behavioural testing was done in three different parts and always assessed in the morning of the 12 hour light cycle.
Open Field Test: Used to assess overall locomotion and activity levels. The mouse was placed in a 40 cm×40 cm arena with walls. Time moving, rearing activity and the distance travelled were all electronically recorded by an ActiMot system. Speed was calculated by dividing the distance travelled by the time moving. Each mouse underwent one five minute trial.
To determine if the administration of AAV9-HexB-HexA improved motor activity in the neonatally treated SD mice, distance travelled in the 5-minute open-field test was analyzed. Testing began at eight weeks, when motor deterioration in SD mice begins to show and continued on a bi-weekly basis to 24 weeks. […] In FIG. 4, values at each point represent the mean.

[3] = test system: GM2 ganglioside storage in mouse brain; test: GM2 ganglioside levels in midbrain by thin layer chromatography; type: in vivo; conditions: 16-week midbrain, drug on its own or in addition to HEXB-HEXA
Method: as §1, with “storage. […]” for “storage.”

[4] = test system: β-hexosaminidase A (HexA); test: HexA activity in midbrain (4-MUGS assay); type: in vivo, mouse; conditions: 16-week midbrain, drug alone or in conjunction with HEXB-HEXA
Method: Animal tissues were collected at designated 16 week end points and long term humane end points. The humane end points were determined by either […] loss of peak body weight or an inability to right itself in 10 seconds. Euthanization was carried out via CO2 asphyxiation followed by cardiac puncture and perfusion with 10 mL of chilled PBS. For biochemical analysis sections of the forebrain, midbrain, hindbrain, cervical spinal cord, and lumbar spinal cord were collected along with the heart, lungs, liver, spleen, kidney, gonads, and a section skeletal muscle. These were all frozen immediately for further processing. […]
Total hexosaminidase activity and Hex activity was measured as previously described (Maegawa et al. 2007; Tropak et al. 2004). […] Total hexosaminidase activity was determined through the use of the 4-methylumbelliferyl-2-acetamido-2-deoxy-β-D-glucopyranoside (4-MUG) assay, whereas the HexA enzyme activity alone was determined through the use of the 4-methylumbelliferyl-7-6-sulfo-2-acetamido-2-deoxy-β-D-glucopyranoside (4-MUGS) assay. Beta galactosidase activity was determined through the use of 4-methylumbelliferyl-β-D-galactopyranoside assay. […] Briefly, the samples were incubated with the fluorogenic substrate at 37° C. for 1 hour, then read on the plate reader with excitation wavelength of 365 nm and an emission wavelength of 450 nm. […]

[5] = SD mice, drug alone 1 mg/kg/day oral gavage from eight weeks

## CCN(CC)Cc1ccc2cc(COC(=O)Nc3ccc(C(=O)NO)cc3)ccc2c1 [ITF2357]
[1]; SD mice
  Survival in conjunction with HEXB-HEXA: significant increase in survival
[1]; [5]
  Survival time: 119 days
[1]
  Mice that did not reach humane end point after 210 days: two
[2]
  Mobility in the open field test in conjunction with HEXB-HEXA: significant increase in mobility
[3]
  Additional decrease in GM2 ganglioside build-up: No additional decrease
[4]
  Further change in HexA activity: no further increase or decrease

## COc1ccc2c(c1)c(CC(=O)O)c(C)n2C(=O)c1ccc(Cl)cc1 [indomethacin]
[1]; SD mice
  Survival in conjunction with HEXB-HEXA: significant increase in survival
[1]; [5]
  Survival time: 123.5 days
[1]
  Mice that did not reach humane end point after 210 days: two
[2]
  Mobility in the open field test in conjunction with HEXB-HEXA: significant increase in mobility
[3]
  Additional decrease in GM2 ganglioside build-up: No additional decrease
[4]
  Further change in HexA activity: no further increase or decrease

## CCc1nc(N)nc(N)c1-c1ccc(Cl)cc1 [pyrimethamine]
[1]; SD mice, drug alone 1 mg/kg/day oral gavage from eight weeks, no significant effect
  Survival (mean): 112.5 days
